Experimental data published in patent US12491202B2, “Phospholipid ether analogs for imaging and targeted treatment of pediatric solid tumors” (Wisconsin Alumni Research Foundation, priority 2016, dated 2025).

Columns and labels:
[1] = test system: pediatric solid tumor cells; test: CLR1501 uptake by flow cytometry in pediatric solid tumor cell lines; assay type: cell-based, human; conditions: 5 μM, 16-19 hours incubation, 4 hours wash; Rd, Rh-41, TC-71, TC-106, SK-N-AS, NB-1691, SAOS-2, SJ-GBM2 p<0.01; CHLA-20, Rh-30 p≤0.02
Text: (§1) FIG. 4 is a bar graph illustrating the preferential uptake of CLR1501, a fluorescent derivative of CLR1404, by pediatric solid cancer cells (rhabdomyosarcoma Rd, Rh-41; Ewing's sarcoma TC-71, TC-106; neuroblastoma SK-N-AS, NB1691; osteosarcoma SAOS-2; glioblastoma SJ-GBM2), and for reference, the adult cancer cell lines PC3 and MT-330, compared to normal human fibroblasts (HUFI), by flow cytometry. Mean±standard error (SE) from minimum 3 experiments per cell line, *P≤0.01. MFI, mean fluorescence intensity; RMS, rhabdomyosarcoma; EWS, Ewing's sarcoma; NB, neuroblastoma; OS, osteosarcoma; GB, glioblastoma, PC, prostate adenocarcinoma. Cells were plated at 5×10^5 cells/ml in triplicates in media containing 5 μM CLR1501 (fluorescent CLR1404). Mean fluorescence intensity corrected for auto-fluorescence was averaged from three experiments±standard deviation.
(§2) Each cell line (5×10^5 cells/ml) was incubated for 16-19 hours with 5 μM CLR1501, then washed with 10% FBS medium for 4 hours. Cells were then measured by flow cytometry (FACSCalibur, BD Biosciences) and analyzed using FlowJo 8.2 (Tree Star, Ashland, Oreg.). Mean fluorescence intensity (MFI) per cell was corrected for autofluorescence (FL1 index) and averaged from three experiments±standard deviation.

[2] = test system: normal human pediatric fibroblast (HUFI) cells; test: CLR1501 uptake by flow cytometry in normal fibroblasts; assay type: cell-based; conditions: 5 μM, 16-19 hours incubation; compared with pediatric tumor cell lines
Text: as §1, §2

[3] = test system: xenografted pediatric solid tumor tissue (Rh30, TC-71, CHLA-20, NB-1691); test: In vivo uptake of 124I-CLR1404 by PET/CT in xenografted mice; design: species or system mouse; conditions: NSG mice, 8-13 μCi/g via tail vein injection
Procedure: Specifically, […] with one of four different pediatric tumor cell lines (CHLA-20 (neuroblastoma), NB-1691 (neuroblastoma), TC-71 (Ewing sarcoma), and Rh-30 (rhabdomyosarcoma). For each of the sixteen xenografted mice, 100 μl cell suspension containing 3×10^6 tumor cells (>95% viability, passage 5-25) was inoculated into subcutaneous tissue of the left flank of a 6-8 week-old NSG mouse (NOD.Cg-Prdc^scidII2rg^tm1Wj1/SzJ, Jackson Laboratory, Bar Harbor, Me.). Once xenograft tumors measured a minimum of about 7×7 mm, the mice received ^124I-CLR1404 at 8-13 μCi/g via tail vein injection. After an uptake period, PET/CT imaging was performed on the mice at 5 and 6 time-points. Following image acquisition, the images were reconstructed, co-registered, resampled, rescaled, and corrected for partial volume effects (PVE), and masked.

[4] = test system: NB-1691 neuroblastoma xenograft; test: Tumor growth rate, linear mixed effects model, NB-1691 xenograft; assay type: in vivo, mouse; conditions: 3.5 μCi/g, excipient slope 0.15, P <0.0001
Procedure: (§3) Rh30, TC-71, TC-106, CHLA-20, NB-1691, and SAOS-2 subcutaneous flank xenografts were induced in mice, as described in Example 2 above. Tumors were measured twice weekly with calipers, and the tumor volume was calculated. When tumors reached a volume of approximately 50 mm^3, mice were randomly assigned to receive either ^131I-CLR1404 in doses of 3.5 μCi/g or an excipient (equimolar ^127I-CLR1404), and measurement of tumor size continued. Survival rates as a function of time were also observed in the xenografted mice.
(§4) A linear mixed effects analysis of predicted growth rate was performed using the tumor size data described above. The results are shown in Table 1 below, and in graphical form in FIG. 10.

[5] = test system: pediatric solid cancer xenografts; test: Tumor volume, survival and toxicity in pediatric solid cancer xenograft NSG models; assay type: in vivo, mouse; conditions: 3.5 μCi/g
Procedure: as §3

[6] = test system: SAOS-2 osteosarcoma xenograft; test: Tumor growth rate, linear mixed effects model, SAOS-2 xenograft; assay type: in vivo, mouse; conditions: 3.5 μCi/g, excipient slope 0.11, P <0.0001
Procedure: as §3, §4

[7] = test system: TC-71 Ewing's sarcoma xenograft; test: Tumor growth rate, linear mixed effects model, TC-71 xenograft; assay type: in vivo, mouse; conditions: 3.5 μCi/g, excipient slope 0.14, P <0.0003
Procedure: as §3, §4

[8] = test system: TC-106 Ewing's sarcoma xenograft; test: Tumor growth rate, linear mixed effects model, TC-106 xenograft; assay type: in vivo, mouse; conditions: 3.5 μCi/g, excipient slope 0.26, P <0.0001
Procedure: as §3, §4

[9] = test system: Rh30 rhabdomyosarcoma xenograft; test: Tumor growth rate, linear mixed effects model, Rh30 xenograft; assay type: in vivo, mouse; conditions: 3.5 μCi/g, excipient slope 0.18, P <0.0001
Procedure: as §3, §4

[10] = test system: CHLA-20 neuroblastoma xenograft; test: Tumor growth rate, linear mixed effects model, CHLA-20 xenograft; assay type: in vivo, mouse; conditions: 3.5 μCi/g, excipient slope 0.13, P 0.0124
Procedure: as §3, §4

**Q.** C[N+](C)(C)CCOP(=O)([O-])OCCCCCCCCCCCCCCCCCCc1ccc(C2=C3C=CC=[N+]3[B-](F)(F)n3cccc32)cc1 [CLR1501] was tested. Which “CLR1501 uptake (mean fluorescence intensity) versus normal pediatric fibroblast (HUFI) cells” value [1] did it give?
**A.** Its value is “significantly higher”.

**Q.** What about the “CLR1501 uptake in normal cells” value [2] of the same compound?
**A.** Its value is “much less uptake”.

**Q.** How did the “Uptake into xenografted tumor tissue (PET/CT)” value [3] turn out when C[N+](C)(C)CCOP(=O)([O-])OCCCCCCCCCCCCCCCCCCc1ccc([124I])cc1 [^124I-CLR1404] was run?
**A.** The value was “differential uptake”.

**Q.** With C[N+](C)(C)CCOP(=O)([O-])OCCCCCCCCCCCCCCCCCCc1ccc([131I])cc1 [^131I-CLR1404] as the compound, how does the “Slope log volume (prediction of the tumor growth rate)” value [4] read?
**A.** The value was 0.09.

**Q.** And the Toxicity ([5]; xenografted mice)?
**A.** Its Toxicity is “low toxicity”.

**Q.** And the “Mean tumor volumes versus excipient” value ([5]; Rh30, TC-71, CHLA-20 and NB-1691 xenografts)?
**A.** Its value is “decreased mean tumor volumes”.

**Q.** What about the “Animal survival versus excipient” value ([5]; four groups, statistically significant in Ewing's sarcoma and rhabdomyosarcoma xenografts) of the same compound?
**A.** The value was “extended animal survival”.

**Q.** What about the “Slope log volume (prediction of the tumor growth rate)” value [6] of the same compound?
**A.** The value was 0.08.

**Q.** What about the “Slope log volume (prediction of the tumor growth rate)” value [7] of the same compound?
**A.** Its value is 0.08.

**Q.** And the “Slope log volume (prediction of the tumor growth rate)” value [8]?
**A.** The value was 0.10.

**Q.** What about the “Slope log volume (prediction of the tumor growth rate)” value [9] of the same compound?
**A.** The value was 0.06.

**Q.** What about the “Slope log volume (prediction of the tumor growth rate)” value [10] of the same compound?
**A.** Its value is 0.09.
